Measurements as given in the NIST ThermoML archive (doi:10.1021/je034255e).

How the values were obtained:
[1] = Liquid; for mass density: 101.33 kPa
[2] = excess molar enthalpy (molar enthalpy of mixing); xn = mol fraction of the nth substance listed; conditions: 413.15 K, 1620 kPa, Liquid, Flow calorimetry

CCC(N)=O [propanamide]
[1]
Conditions	mass density [kg/m3]	vapor or sublimation pressure [kPa]
355.65 K	963.2	–
358.15 K	961.2	–
363.15 K	957.2	–
375.45 K	–	0.97
384.15 K	–	1.53
394.15 K	–	2.52
403.65 K	–	4.02
414.05 K	–	6.4
427.65 K	–	11.22
443.85 K	–	21.16
455.55 K	–	31.04
462.95 K	–	40.87
469.05 K	–	50.69
475.85 K	–	60.86

CCC(N)=O [propanamide] + CCCCCCCCCCC
[2]
Conditions	excess molar enthalpy [kJ/mol]
x2 = 0.0092	0.139
x2 = 0.0284	0.241
x2 = 0.049	0.254
x2 = 0.1074	0.28
x2 = 0.7646	0.556
x2 = 0.9337	0.628
x2 = 0.9661	0.644
